Publication PMC4303209, “A novel phosphatidylinositol 3-kinase (PI3K) inhibitor directs a potent FOXO-dependent, p53-independent cell cycle arrest phenotype characterized by the differential induction of a subset of FOXO-regulated genes” (Breast Cancer Research : BCR, 2014)

Key:
mutated BRAF = assay: Protein kinase panel screen (ProQinase), mutated BRAF; format: biochemical; conditions: 10 μM
Method: (§1) The protein kinase assays depicted in Figure S1 in Additional file 1 and Table S2 in Additional file 2 were performed at ProQinase, GmbH [18].
(§2) Our first objective was to analyse the biological activity of ETP-45658 including the physical and chemical properties of this compound compared to the reference pan-class I PI3K and mTOR inhibitor PI-103 [9]. We characterised the structure of each compound (Figure S1A in Additional file 1) and conducted the in silico analysis of each compound to measure their physiochemical properties (Figure S1B in Additional file 1). We determined the molecular polar surface area (PSA) of each compound, the partition coefficient, the distribution coefficient, compound solubility and the number of hydrogen donors and acceptors. […] Each indicated protein kinase activity was assayed following 10 μM treatment with either compound.
(§3) Supplementary file 13058_2014_482_MOESM1_ESM.jpeg: Additional file 1: Figure S1.: Comparative analysis of ETP-45658 and PI-103. (A) Chemical structure of ETP-45658 and PI-103. (B) Physiochemical properties of ETP-45658 and PI-103, including molecular polar surface area (PSA), partition coefficient (LogP), ACD clogD and solubility at two different pH values including Lipinsky’s Rule of Five (RoF) analysis. […] The kinase activity of PI3K was measured by using the commercial PI3-kinase HTRF™ assay mTOR activity by LanthaScreen™. […]

[1] = target: panel of 24 representative kinases; assay: Protein kinase panel screen (ProQinase); format: biochemical, human; conditions: 10 μM
Method: as §1, §2, §3

[2] = test system: known toxicity pathways and canonical stress pathways; assay: Ingenuity Pathway Tox Analysis of genome-wide array data; format: cell-based, human; conditions: vs DMSO; MCF-7 array data
Source text: While our results highlight that the primary cellular response is an anti-proliferative response (as opposed to an apoptotic response), for the development of ETP-45658 as a potential therapeutic, we questioned if ETP-45658 exposure was associated with any degree of toxicity, one of the most fundamental questions for any proposed therapeutic. We conducted a genome-wide analysis utilising an Ingenuity Pathway Analysis algorithm to address if any known toxicity pathway(s) were activated or induced after treatment with ETP-45658 (or by the reference compound PI-103). This included an extensive evaluation of the cardiac necrosis stress cascade, genes implicated in kidney failure, liver necrosis and liver hematomegaly. Furthermore, we also questioned if, on a genome-wide scale, any know canonical stress pathways were activated by ETP-45658 (or PI-103) treatment. This included the p53 pathway, PTEN aldosterone, ErbB2-ErbB3 and the ERK-MAPK signalling cascades.
Figure 2 Focused toxicity and safety assessment of ETP-45658.

mTOR = mTOR (Homo sapiens, UniProt P42345); assay: mTOR kinase assay (LanthaScreen); format: biochemical; conditions: for inhibitory activity against mTOR: Figure S1C
Method: (§4) The kinase activity of PI3Kα, PI3Kβ, PI3Kδ and PI3Kγ, mutant PI3Kα (H1047R and E542K) mammalian target of rapamycin (mTOR) and DNA-PK was measured as described previously. The protein kinase assays depicted in Figure S1 in Additional file 1 and Table S2 in Additional file 2 were performed at ProQinase, GmbH [18].
(§5) Supplementary file 13058_2014_482_MOESM1_ESM.jpeg: Additional file 1: Figure S1.: Comparative analysis of ETP-45658 and PI-103. (A) Chemical structure of ETP-45658 and PI-103. (B) Physiochemical properties of ETP-45658 and PI-103, including molecular polar surface area (PSA), partition coefficient (LogP), ACD clogD and solubility at two different pH values including Lipinsky’s Rule of Five (RoF) analysis. (C) Inhibitory activity against PI3K and mTOR. The kinase activity of PI3K was measured by using the commercial PI3-kinase HTRF™ assay mTOR activity by LanthaScreen™. (D) ETP-45658 and PI-103 screen against a panel of 24 kinases. The value shown indicates kinase inhibition (percentage +/− standard deviation) at 10 μM. (E) Migration of MDA-MB231 cells in a two compartment Boyden chamber for 72 hours in the presence of DMSO, ETP-45658 or PI-103 (N = 3). (JPEG 662 KB)

[3] = test system: serine 253-phosphorylated FOXO3a; assay: Immunoblot of FOXO3a phosphorylation in MCF-7 or U2OS cells; format: cell-based, human; conditions: breast or osteosarcoma cancer cells; six hours post treatment
MDA-MB231 cells = assay: Boyden chamber matrigel invasion assay; format: cell-based, human; conditions: 72 hours; for capacity of MDA-MB231 cells to migrate through the matrigel: Figure S1E; for cell viability in invasion assay: MDA-MB231
Method: Cell-invasive capacity was determined using two-compartment Boyden chamber matrigel invasion assay (BD BioCoat™ Matrigel™ Invasion Chambers, BD Biosciences 354480, BD Biosciences, San Jose, CA, USA). MDA-MB231 cells were allowed to invade for 72 hours at 37°C. All of the inserts and the liquid in each well of the companion plate were removed. 10% serum RPMI medium with 5 μM calcein was added to each and incubated for 1 hour (in darkness). Fluorescence was measured with a luminometer (Envision, PerkinElmer, Inc, Waltham, MA, USA) at 485/535 nm and the results were analyzed in Activity Base (IDBS, Guildford, UK).
as §5

PI3K = assay: Kinase assay of PI3Kα, PI3Kβ, PI3Kδ, PI3Kγ and mutant PI3Kα (H1047R and E542K), PI3-kinase HTRF assay; format: biochemical; conditions: Figure S1C
Method: as §4, §5

[4] = test system: phosphorylated serine 473 AKT; assay: Immunoblot of AKT Ser473 phosphorylation in MCF-7 or U2OS cells; format: cell-based, human
Method: Figure 1 Cellular response to ETP-45658. […] Seventy-two hours post treatment, MTT assays were conducted. (B) Dose- and time-dependent analysis of Ser473 phosphorylation of AKT phosphorylation by 100nM ETP-45658 or PI-103 treatment. MCF-7 or U2OS cells were treated with the indicated concentrations (μM) of ETP-45658 (or PI-103) for four hours, then total protein was extracted and immunoblotted. For nuclear FOXO analysis, nuclear protein fractions were collected four hours post ETP-45658 (or PI-103) treatment. Nuclear FOXO3a levels were measure by immunoblotting. Nuclear fractions were confirmed by probing for lamin A/C. (C) FACS profile of MCF-7 or U2OS following 100 nM ETP-45658 treatment (20,000 events scored, N = 5). (D) Heat map for the top 100 differentially expressed genes based on hierarchical clustering using Euclidean distance metric. Red and green indicate genes that induced or repressed respectively by ETP-45658 or PI-103. Black indicates no change (N = 4). […] Numbers indicate number of genes that are exclusive to that particular category.

[5] = MCF-7 and U2OS, as early as 30 minutes post treatment
[6] = osteosarcoma cells (U2OS), by three hours post treatment

| Structure (SMILES) | average percent inhibition (mutated BRAF) [%] | kinases significantly inhibited in panel of 24 kinases [1] | induction of known toxicity pathways (Ingenuity Pathway Tox Analysis) [2] | inhibitory activity against mTOR (mTOR) | potency against mTOR relative to PI-103 (mTOR; compared to reference compound PI-103) | serine 253-phosphorylated FOXO3a [3] | capacity of MDA-MB231 cells to migrate through the matrigel (MDA-MB231 cells) | cell viability in invasion assay (MDA-MB231 cells) | inhibitory activity against PI3K (PI3K) | phosphorylated serine 473 AKT [4, 5] | phosphorylated serine 473 AKT [4, 6] |
| --- | --- | --- | --- | --- | --- | --- | --- | --- | --- | --- | --- |
| Cn1ncc2c(N3CCOCC3)nc(-c3cccc(O)c3)nc21 [ETP-45658] | 38 | only mutated BRAF was significantly inhibited | Neither ETP-45658 (nor PI-103) treatment significantly induced any known toxicity pathways | inhibited | almost three times more potent | almost complete absence | inhibited | without significantly affecting cell viability | potently inhibited | significant decrease | unable to detect |
| Oc1cccc(-c2nc(N3CCOCC3)c3oc4ncccc4c3n2)c1 [PI-103] | 57.7 | only mutated BRAF was significantly inhibited | Neither ETP-45658 (nor PI-103) treatment significantly induced any known toxicity pathways | significantly less potent | – | almost complete absence | inhibited | without significantly affecting cell viability | slightly more effective | significant decrease | unable to detect |
